Laboratory results reported in ChEMBL document CHEMBL3045972, “Effect of side-chain alteration on hormonal activity of nonsteroidal estrogen antagonists” (2010).

Test system: Rattus norvegicus
Assay: Antiestrogenic activity in Rattus norvegicus Sprague-Dawley (rat) assessed as inhibition of ethynylestradiol-induced uterine weight at 3 mg/kg, po qd administered 3 days measured on day 31 relative to control
Format: functional
Details: 3 mg/kg

Compound | inhibition (INH)
COc1ccc2c(c1)OC(C)(C)[C@@H](c1ccccc1)[C@@H]2c1ccc(O)cc1 (relative stereo; 1c) [listing 1 of 2 here] | 46.11%

Same assay, conditions: Rattus norvegicus, Sprague-Dawley, po

Compound | inhibition in vivo at 3 mg/kg
COc1ccc2c(c1)OC(C)(C)[C@H](c1ccccc1)[C@H]2c1ccc(O)cc1 | 50%
COc1ccc2c(c1)OC(C)(C)[C@@H](c1ccccc1)[C@@H]2c1ccc(O)cc1 (relative stereo; 1b) [listing 1 of 2 here] | 60%
CCOC(=O)C(C)Oc1ccc([C@@H]2c3ccc(OC)cc3OC(C)(C)[C@H]2c2ccccc2)cc1 (single isomer, unassigned; (-)) | 40.6%

Test system: Rattus norvegicus
Assay: Antiestrogenic activity in Rattus norvegicus Sprague-Dawley (rat) assessed as inhibition of ethynylestradiol-induced uterine weight at 10 mg/kg, po qd administered 3 days measured on day 31 relative to control
Format: functional
Details: 10 mg/kg

Compound | inhibition (INH)
COc1ccc2c(c1)OC(C)(C)[C@@H](c1ccccc1)[C@@H]2c1ccc(OC(C)C(=O)NN)cc1 (relative stereo) [listing 1 of 2 here] | 12.14%
COc1ccc2c(c1)OC(C)(C)[C@@H](c1ccccc1)[C@@H]2c1ccc(OC(C)C(=O)NN)cc1 (single isomer, unassigned; (-)) [listing 1 of 2 here] | 25.37%
COc1ccc2c(c1)OC(C)(C)[C@@H](c1ccccc1)[C@@H]2c1ccc(OC(C)C(=O)O)cc1 (stereo in doubt; 3c) [listing 1 of 2 here] | 10%

Same assay, conditions: Rattus norvegicus, Sprague-Dawley, po

Compound | inhibition in vivo at 10 mg/kg
COc1ccc2c(c1)OC(C)(C)[C@H](c1ccccc1)[C@@H]2c1ccc(OC(C)C(=O)O)cc1 (relative stereo) | 3.8%
COc1ccc2c(c1)OC(C)(C)[C@H](c1ccccc1)[C@@H]2c1ccc(OC(C)C(=O)NN)cc1 (relative stereo) | 1.07%
CCOC(=O)C(C)Oc1ccc([C@@H]2c3ccc(OC)cc3OC(C)(C)[C@H]2c2ccccc2)cc1 (relative stereo) [listing 1 of 2 here] | 3.98%
COc1ccc2c(c1)OC(C)(C)[C@@H](c1ccccc1)[C@@H]2c1ccc(OC(C)C(=O)O)cc1 (relative stereo) | 10.8%
CCOC(=O)C(C)Oc1ccc([C@@H]2c3ccc(OC)cc3OC(C)(C)[C@@H]2c2ccccc2)cc1 (relative stereo) | 3.71%
CCOC(=O)C(C)Oc1ccc([C@H]2c3ccc(OC)cc3OC(C)(C)[C@@H]2c2ccccc2)cc1 (single isomer, unassigned; (+)) | 14.3%
COc1ccc2c(c1)OC(C)(C)[C@H](c1ccccc1)[C@H]2c1ccc(OC(C)C(=O)O)cc1 (single isomer, unassigned; (+)) | 16.1%
COc1ccc2c(c1)OC(C)(C)[C@H](c1ccccc1)[C@H]2c1ccc(OC(C)C(=O)NN)cc1 (single isomer, unassigned; (+)) | 6.21%

Test system: Rattus norvegicus
Assay: Estrogenic activity in Rattus norvegicus (rat) assessed as increase in uterine weight at 3 mg/kg, sc qd after 3 days relative to control
Format: functional
Details: Rattus norvegicus, sc, 72 h, route subcutaneous, read-out: INH

Compound | uterine weight increase relative to control at 3 mg/kg
COc1ccc2c(c1)OC(C)(C)[C@H](c1ccccc1)[C@H]2c1ccc(O)cc1 | 109%
CCOC(=O)C(C)Oc1ccc([C@@H]2c3ccc(OC)cc3OC(C)(C)[C@H]2c2ccccc2)cc1 (single isomer, unassigned; (-)) | 122%

Same assay, conditions: route subcutaneous, 3 mg/kg

Compound | uterine weight increase relative to control
COc1ccc2c(c1)OC(C)(C)[C@@H](c1ccccc1)[C@@H]2c1ccc(O)cc1 (relative stereo; 1b) [listing 1 of 2 here] | 126.83%
COc1ccc2c(c1)OC(C)(C)[C@@H](c1ccccc1)[C@@H]2c1ccc(O)cc1 (relative stereo; 1c) [listing 1 of 2 here] | 165%

Test system: Rattus norvegicus
Assay: Estrogenic activity in Rattus norvegicus (rat) assessed as increase in uterine weight at 10 mg/kg, sc qd after 3 days relative to control
Format: functional
Details: route subcutaneous

Compound | Activity
COc1ccc2c(c1)OC(C)(C)[C@H](c1ccccc1)[C@@H]2c1ccc(OC(C)C(=O)O)cc1 (relative stereo) | 44.2%
COc1ccc2c(c1)OC(C)(C)[C@H](c1ccccc1)[C@@H]2c1ccc(OC(C)C(=O)NN)cc1 (relative stereo) | 110.22%
CCOC(=O)C(C)Oc1ccc([C@@H]2c3ccc(OC)cc3OC(C)(C)[C@H]2c2ccccc2)cc1 (relative stereo) [listing 1 of 2 here] | 43.7%
COc1ccc2c(c1)OC(C)(C)[C@H](c1ccccc1)[C@@H]2c1ccc(O)cc1 (relative stereo) | 33.6%
CCOC(=O)C(C)Oc1ccc([C@@H]2c3ccc(OC)cc3OC(C)(C)[C@@H]2c2ccccc2)cc1 (relative stereo) | 71.58%
CCOC(=O)C(C)Oc1ccc([C@H]2c3ccc(OC)cc3OC(C)(C)[C@@H]2c2ccccc2)cc1 (single isomer, unassigned; (+)) | 0.19%
COc1ccc2c(c1)OC(C)(C)[C@H](c1ccccc1)[C@H]2c1ccc(OC(C)C(=O)O)cc1 (single isomer, unassigned; (+)) | 6.88%
COc1ccc2c(c1)OC(C)(C)[C@H](c1ccccc1)[C@H]2c1ccc(OC(C)C(=O)NN)cc1 (single isomer, unassigned; (+)) | 6.68%

Same assay, conditions: route subcutaneous, 10 mg/kg

Compound | Activity
COc1ccc2c(c1)OC(C)(C)[C@@H](c1ccccc1)[C@@H]2c1ccc(OC(C)C(=O)O)cc1 (relative stereo) | 21.6%
COc1ccc2c(c1)OC(C)(C)[C@@H](c1ccccc1)[C@@H]2c1ccc(OC(C)C(=O)NN)cc1 (relative stereo) [listing 1 of 2 here] | 101.91%
COc1ccc2c(c1)OC(C)(C)[C@@H](c1ccccc1)[C@@H]2c1ccc(OC(C)C(=O)NN)cc1 (single isomer, unassigned; (-)) [listing 1 of 2 here] | 155.02%
COc1ccc2c(c1)OC(C)(C)[C@@H](c1ccccc1)[C@@H]2c1ccc(OC(C)C(=O)O)cc1 (stereo in doubt; 3c) [listing 1 of 2 here] | 149%

Molecular target: T1, Estrogen receptor (Rattus norvegicus) (UniProt P06211)
T1 sequence (whole entry): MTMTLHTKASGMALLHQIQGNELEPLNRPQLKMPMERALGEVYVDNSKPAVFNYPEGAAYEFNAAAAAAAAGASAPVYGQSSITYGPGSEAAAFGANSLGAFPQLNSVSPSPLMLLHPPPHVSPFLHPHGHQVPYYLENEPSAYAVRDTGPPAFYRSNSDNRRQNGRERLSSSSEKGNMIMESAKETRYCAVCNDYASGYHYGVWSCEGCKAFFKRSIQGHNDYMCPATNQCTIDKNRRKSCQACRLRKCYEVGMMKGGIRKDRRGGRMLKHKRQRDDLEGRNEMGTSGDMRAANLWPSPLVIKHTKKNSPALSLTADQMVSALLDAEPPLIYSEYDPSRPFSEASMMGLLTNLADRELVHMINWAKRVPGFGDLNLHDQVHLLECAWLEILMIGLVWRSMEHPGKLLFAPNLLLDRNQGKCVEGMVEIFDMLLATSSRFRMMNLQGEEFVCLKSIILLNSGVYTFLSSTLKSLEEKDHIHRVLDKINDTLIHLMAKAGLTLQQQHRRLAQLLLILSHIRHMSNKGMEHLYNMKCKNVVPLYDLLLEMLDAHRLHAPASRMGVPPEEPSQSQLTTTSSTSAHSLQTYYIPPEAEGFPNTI
Assay: Binding affinity to Charles Foster Rattus norvegicus (rat) uterine 17beta-estradiol receptor cytosolic form relative to estradiol
Details: not given

Activity | Compound
2.1% | COc1ccc2c(c1)OC(C)(C)[C@H](c1ccccc1)[C@H]2c1ccc(O)cc1
0.011% | COc1ccc2c(c1)OC(C)(C)[C@H](c1ccccc1)[C@@H]2c1ccc(OC(C)C(=O)NN)cc1 (relative stereo)
< 0.001% | COc1ccc2c(c1)OC(C)(C)[C@H](c1ccccc1)[C@@H]2c1ccc(O)cc1 (relative stereo)
0.029% | CCOC(=O)C(C)Oc1ccc([C@@H]2c3ccc(OC)cc3OC(C)(C)[C@H]2c2ccccc2)cc1 (relative stereo) [listing 2 of 2 here]
0.052% | COc1ccc2c(c1)OC(C)(C)[C@@H](c1ccccc1)[C@@H]2c1ccc(OC(C)C(=O)NN)cc1 (relative stereo) [listing 2 of 2 here]
5.42% | COc1ccc2c(c1)OC(C)(C)[C@@H](c1ccccc1)[C@@H]2c1ccc(O)cc1 (relative stereo; 1b) [listing 2 of 2 here]
15.7% | COc1ccc2c(c1)OC(C)(C)[C@@H](c1ccccc1)[C@@H]2c1ccc(O)cc1 (relative stereo; 1c) [listing 2 of 2 here]
0.24% | COc1ccc2c(c1)OC(C)(C)[C@H](c1ccccc1)[C@H]2c1ccc(OC(C)C(=O)NN)cc1 (single isomer, unassigned; (+))
0.37% | COc1ccc2c(c1)OC(C)(C)[C@@H](c1ccccc1)[C@@H]2c1ccc(OC(C)C(=O)NN)cc1 (single isomer, unassigned; (-)) [listing 2 of 2 here]
0.037% | COc1ccc2c(c1)OC(C)(C)[C@@H](c1ccccc1)[C@@H]2c1ccc(OC(C)C(=O)O)cc1 (stereo in doubt; 3c) [listing 2 of 2 here]
